Holding throughout (format): cell-based, Chinese hamster
Assay [1] has as its system IgG-expressing CHO cell line (anti-human α9 antibody RY9A2v12 (M34L) 012). The assay is described as follows: Fed-batch culture with deoxyuridine, thymidine and/or deoxycytidine (Example 4). Conditions: 25 mg/L. The procedure: Using a culture medium for animal cells as a cell growth medium, fed-batch culture of an IgG-expressing CHO cell line (a CHO cell line in which an anti-human α9 antibody ([…]) 012) had been recombinantly expressed, as described in WO 2009/088064) was started at an initial viable cell density of 1×10^6 cells/mL under the conditions of 36.5° C. and 5% CO2. At the start of culture, deoxyuridine, thymidine, and/or deoxycytidine was/were each added to a final concentration of 0 or 25 mg/L according to Table 2. The culture was continued until day 14 of culture while a feed culture medium was added everyday from day 2 of culture. Sampling was done at appropriate timings. Viable cell densities were measured by trypan blue exclusion method, and antibody concentrations were measured by protein A column HPLC. […] [table]

Assay [2] relates to IgG-expressing CHO cell line (anti-human TSLP receptor antibody, fully human T7-27). As to the kind of experiment: Fed-batch culture with deoxyuridine added on day 2 (Example 1); trypan blue exclusion, protein A column HPLC. The procedure: Using a culture medium for animal cells as a cell growth medium, fed-batch culture of an IgG-expressing CHO cell line (a CHO cell line in which an anti-human thymic stromal lymphopoietin (TSLP) receptor antibody (fully human T7-27) had been recombinantly expressed, as described in WO 2015/020193) was started at an initial viable cell density of 1×10^6 cells/mL under the conditions of 36.5° C. and 5% CO2. On day 2 of culture, deoxyuridine was added to cultures to a final concentration of 10, 25, 50, 100 or 200 mg/L. The culture was continued until day 14 of culture while a feed medium was added everyday from day 2 of culture. Sampling was done at appropriate timings. Viable cell densities were measured by trypan blue exclusion study, and antibody concentrations were measured by protein A column HPLC. […] It was also observed that even addition of […] deoxyuridine enhancedantibody production during the cell culture until day 10 to day 12.

Assay [3] has the same test system. As to the kind of experiment: Fed-batch culture with deoxyuridine in the presence of thymidine and deoxycytidine (Example 2). Conditions: for highest viable cell density observed during the 14 days of culture: at start of culture; for antibody concentration on the final day of culture: day 14. The procedure: Using a culture medium for animal cells as a cell growth medium, fed-batch culture of an IgG-expressing CHO cell line (a CHO cell line in which an anti-human TSLP receptor antibody (fully human T7-27) had been recombinantly expressed, as described in WO 2015/020193) was started at an initial viable cell density of 1×10^6 cells/mL under the conditions of 36.5° C. and 5% CO2. At the start of culture, thymidine and deoxycytidine hydrochloride (in the working examples given in the subject specification, deoxycytidine hydrochloride was actually used as deoxycytidine, and the concentrations of deoxycytidine hydrochloride are expressed by using the converted concentration value of deoxycytidine from deoxycytidine hydrochloride.) were each added to cultures to a final concentration of 25 mg/L, and deoxyuridine was added to a final concentration of 10, 25, 40, 55, 70 or 85 mg/L. The culture was continued until day 14 of culture while a feed culture medium was added everyday from day 2 of culture. Sampling was done at appropriate timings. Viable cell densities were measured by trypan blue exclusion method, and antibody concentrations were measured by protein A column HPLC.

The test system is the same in assay [4]. As to the kind of experiment: Fed-batch culture with deoxyuridine, thymidine and deoxycytidine added on day 2 (Example 3). As to conditions: 25 mg/L of each added component. The procedure: Using a culture medium for animal cells as a cell growth medium, fed-batch culture of an IgG-expressing CHO cell line (a CHO cell line in which an anti-human TSLP receptor antibody (fully human T7-27) had been recombinantly expressed, as described in WO 2015/020193) was started at an initial viable cell density of 1×10^6 cells/mL under the conditions of 36.5° C. and 5% CO2. On day 2 of culture, deoxyuridine was added to a final concentration of 25 mg/L, and thymidine and deoxycytidine were each added to cultures to a final concentration of 0 or 25 mg/L according to Table 1. The culture was continued until day 14 of culture while a feed culture medium was added everyday from day 2 of culture. Sampling was done at appropriate timings. Viable cell densities were measured by trypan blue exclusion method, and antibody concentrations were measured by protein A column HPLC. […] In contrast, in the case of addition of deoxyuridine in the presence of 25 mg/L each of thymidine and deoxycytidine (dU-dT-dC), the viable cell density, cell viability, and antibody concentration on the final day of the 14 days of culture were 12×10^6 cells/mL, approximately 78%, and 5.8 g/L, respectively; these values were higher than in the cases of addition of dU, addition of deoxyuridine and deoxycytidine (dU-dC), and addition of deoxyuridine and thymidine (dU-dT). […] [table]

For assay [5], the system named is IgG-expressing CHO cell line (anti-human α9 integrin antibody RY9A2v12 (M34L) 012). As to the kind of experiment: Batch culture with deoxyuridine (Example 6). The procedure: Using a culture medium for animal cells as a cell growth medium, batch culture of an IgG-expressing CHO cell line (a CHO cell line in which an anti-human α9 integrin antibody (hereinafter referred to as “anti-human α9 antibody”) (RY9A2v12 (M34L) 012) had been recombinantly expressed, as described in WO 2009/088064) was started at an initial viable cell density of 0.3×10^6 cells/mL under the conditions of 36.5° C. and 5% CO2. At the start of culture, deoxyuridine was added to cultures to a final concentration of 5, 25, 100, 500 or 1000 mg/L, and then the culture was continued for 5 days. Sampling was done at appropriate timings. Viable cell densities were measured bytrypan blue exclusion method, and antibody concentrations were measured by protein A column HPLC.

Assay [6] has as its system IgG-expressing CHO cell line (anti-human TSLP receptor antibody, fully human T7-27). As to the kind of experiment: Fed-batch culture, comparison with uridine and thymidine (Example 7). As to conditions: 25 mg/L of each added component. The procedure: (§1) Using a culture medium for animal cells as a cell growth medium, fed-batch culture of an IgG-expressing CHO cell line (a CHO cell line in which an anti-human TSLP receptor antibody (fully human T7-27) had been recombinantly expressed, as described in WO 2015/020193) was started at an initial viable cell density of 1×10^6 cells/mL under the conditions of 36.5° C. and 5% CO2. At the start of culture, deoxyuridine, thymidine and deoxycytidine were each added to a final concentration of 25 mg/L. To provide comparative conditions, uridine (U) and thymidine were added, at the start of culture, at concentrations of 7 mg/L and 0.24 mg/L, respectively (these concentrations are the same as those described in Examples of EP 1818392 B1). The culture was continued under each of the different conditions described above until day 14 of culture while a feed culture medium was added everyday from day 2 of culture. Sampling was done at appropriate timings. Viable cell densities were measured by trypan blue exclusion method, and antibody concentrations were measured by protein A column HPLC.

The test system of assay [7] is IgG-expressing CHO cell line (anti-human α9 antibody RY9A2v12 (M34L) 012). As to the kind of experiment: Fed-batch culture, comparison with uridine and thymidine (Example 8). Conditions: 25 mg/L of each added component. The procedure:
as §1, with “α9” for “TSLP receptor”, “([…]) 012)” for “(fully human T7-27)”, “2009/088064)” for “2015/020193)”, “uridine” for “uridine (U)”, “feed” for “feed culture”, “HPLC. […] In contrast, the highest viable cell densities were approximately 21×10^6 cells/mL in the case of addition of 25 mg/L deoxyuridine (dU25 mg/L), and about 31×10^6 cells/mL in the case of addition of 25 mg/L each of deoxyuridine, thymidine and deoxycytidine (dUdTdC25 mg/L); these values were higher than control.” for “HPLC.”

Assay [8] has as its system Fab′ fragment-expressing CHO cell line (anti-human NGF antibody Fab′ fragment 1-15 (N52D-A)-Fab′). As to the kind of experiment: Fed-batch culture, comparison with uridine and thymidine (Example 9). Conditions: 25 mg/L of each added component. The procedure: Using a culture medium for animal cells as a cell growth medium, fed-batch culture of a Fab′ fragment-expressing CHO cell line (a CHO cell line in which an anti-human NGF antibody Fab′ fragment (1-15 (N52D-A)-Fab′) had been expressed, as described in WO 2013/022083) was started at an initial viable cell density of 1×10^6 cells/mL under the conditions of 36.5° C. and 5% CO2. At the start of culture, deoxyuridine, thymidine and deoxycytidine were each added to a final concentration of 25 mg/L. To provide comparative conditions, uridine and thymidine were added, at the start of culture, at concentrations of 7 mg/L and 0.24 mg/L, respectively (these concentrations are the same as those described in Examples of EP 1818392 B1). The culture was continued under each of the different conditions described above until day 14 of culture while a feed medium was added everyday from day 2 of culture. Sampling was done at appropriate timings. Viable cell densities were measured by trypan blue exclusion method, and antibody concentrations were measured by reverse-phase HPLC.

Setting [9] is: 10 mg/L deoxyuridine with 25 mg/L each thymidine and deoxycytidine.
[10] abbreviates: 25 mg/L deoxyuridine with 25 mg/L each thymidine and deoxycytidine.

In the case of `Cc1cn([C@H]2C[C@H](O)[C@@H](CO)O2)c(=O)[nH]c1=O` [thymidine], in assay [1], the “effects when added alone (viable cell density, antibody concentration)” value (“effects when added alone” for short) was “produce effects”.
Consider `Nc1ccn([C@H]2C[C@H](O)[C@@H](CO)O2)c(=O)n1` [deoxycytidine], for which, in assay [1], the “effects when added alone” value is “no effect”.
In the case of `O=c1ccn([C@H]2C[C@H](O)[C@@H](CO)O2)c(=O)[nH]1` [deoxyuridine], the “antibody production during the cell culture until day 10 to day 12” value in assay [2] (10 mg/L deoxyuridine) is reported as “enhanced”. The “highest viable cell density observed during the 14 days of culture” value in assay [2] (25 mg/L deoxyuridine added on day 2, control about 10) was “about 18 ×10^6 cells/mL”; in assay [3] (setting [9]) it was “about 27 ×10^6 cells/mL”; in assay [3] (setting [10]), “approximately 32 ×10^6 cells/mL”; in assay [6] (at start of culture, control approximately 12), “approximately 21 ×10^6 cells/mL”; in assay [7] (at start of culture, control about 16), “approximately 21 ×10^6 cells/mL”; in assay [8] (at start of culture, control approximately 14), “approximately 26 ×10^6 cells/mL”. The “antibody concentration on the final day of culture” value in assay [2] (25 mg/L deoxyuridine added on day 2, day 14, control 3.3) is given as 5.5 g/L; in assay [3] (setting [9]) it was 5.9 g/L; in assay [3] (setting [10]), 6.8 g/L; in assay [6] (day 14, control approximately 2.9), “approximately 4.6 g/L”. The “response to deoxyuridine addition (cell growth and antibody production)” value in assay [2] (any concentration tested from 10 mg/L to 200 mg/L) is “enhanced cell growth and antibody production”. Moreover, the “enhancing effects on cell growth and antibody production” value in assay [3] (deoxyuridine 25 mg/L or higher in the presence of thymidine and deoxycytidine, versus 10 mg/L) was “higher enhancing effects on cell growth and antibody production”. The “antibody concentration on the final day of the 14 days of culture” value in assay [4] was 5.1 g/L. Moreover, the “cell viability on the final day of the 14 days of culture” value in assay [4] is listed as “approximately 61%”. For the same molecule, in assay [4], the “viable cell density on the final day of the 14 days of culture” value was “approximately 7.6 ×10^6 cells/mL”. The “effects when added alone” value in assay [1] is reported as “produce effects”. For the same molecule, in assay [5] (100 mg/L deoxyuridine at start of batch culture, control approximately 7), the “highest viable cell density observed during the 5 days of culture” value is reported as “approximately 10 ×10^6 cells/mL”. The “effect on cell growth” value in assay [5] (any concentration tested from 5 mg/L to 500 mg/L) is “enhancing effect on cell growth”. Further, the “antibody concentrations during culture versus control” value in assay [7] (FIG. 16) is reported as “higher levels than control”. In assay [8] (day 14, control approximately 2.2), the “protein concentration on the final day of culture” value was “approximately 3.1 g/L”.

Values taken from patent publication US11286459B2, “Cell culturing method using nucleic acid-containing medium” (Astellas Pharma Inc., priority 2015, dated 2022).
